The text below walks through data of patent publication US6468979B1, “Erythromycin derivatives with antibiotic activity” (Zambon Group S.p.A., priority 1998, dated 2002).

In brackets after ≈: the same amount, converted by molar mass.

The test system of one experiment is S. aureus 77. As to the kind of experiment: In vitro antibacterial activity (MIC), broth dilution micromethod. In kind it is cell-based, Staphylococcus aureus. The conditions noted are these: erythromycin-resistant strain, MHB, 37° C., 18 hours. The protocol: (§1) The minimum inhibitory concentrations (MIC), with respect to Gram-positive bacteria (erythromycin-sensitive and -resistant strains) and Gram-negative bacteria, were determined by means of the broth-scaler dilution micromethod in twin series [National Committee for Clinical Laboratory Standards, 1990; Methods for dilution antimicrobial susceptibility tests for bacteria that grow aerobically; Approved standards M7-A2-NCCLS, Villanova, Pa.], using Mueller Hinton Broth (MHB) as culture medium.
(§2) Azithromycin [The Merck Index, XIIth Edition, No. 946) was used as reference macrolide.
(§3) The MIC values, expressed in μg/ml, were determined after incubating the microplates at 37° C. for 18 hours, by evaluating the lowest concentration of antibiotic capable of inhibiting bacterial growth.

A further experiment concerns S. aureus 929. Described as above. Type of experiment: cell-based, Staphylococcus aureus. The settings on record: erythromycin-resistant strain, MHB, 37° C., 18 hours. The protocol:
as §1, §2, §3

In a further experiment the test system is S. coag. Neg. 845. The experiment is described as above. In kind it is cell-based, Staphylococcus spp. The conditions noted are these: erythromycin-resistant strain, MHB, 37° C., 18 hours. The protocol: as §1, §2, §3
A further experiment has as its system S. epidermis 60. Described as above. The conditions noted are these: erythromycin-resistant (inducible) strain, MHB, 37° C., 18 hours. Type of experiment: cell-based, Staphylococcus spp. The method, then:
as §1, §2, §3

The next experiment concerns S. specie 916. The description is as above. In kind it is cell-based, Staphylococcus spp. The settings on record: erythromycin-resistant (inducible) strain, MHB, 37° C., 18 hours. The method, then: as §1, §2, §3
For the next experiment, the system named is S. haemolyticus 161. The experiment is described as above. Type of experiment: cell-based, Staphylococcus haemolyticus. The conditions noted are these: erythromycin-resistant strain, MHB, 37° C., 18 hours. The method, then:
as §1, §2, §3

The subject of another experiment is S. pneumoniae 1035. Described as above. Type of experiment: cell-based, Streptococcus pneumoniae. The conditions noted are these: erythromycin-resistant strain, MHB with 5% horse serum, 37° C., 18 hours. The method, then: as §1
(§4) In the case of Streptococcus pneumoniae, the medium was supplemented with 5% horse serum.
as §2, §3

In another experiment the test system is S. pneumoniae 1047. Described as above. Type of experiment: cell-based, Streptococcus pneumoniae. The conditions noted are these: erythromycin-resistant strain, MHB with 5% horse serum, 37° C., 18 hours. The method, then:
as §1, §4, §2, §3

Another experiment has as its system S. pneumoniae 1051. The experiment is described as above. Type of experiment: cell-based, Streptococcus pneumoniae. The conditions noted are these: erythromycin-resistant strain, MHB with 5% horse serum, 37° C., 18 hours. The protocol:
as §1, §4, §2, §3

For experiment [1], the system named is Streptococcus pyogenes C203. The experiment is described as follows: In vivo therapeutic efficacy in experimental pulmonary infection in mice. The settings on record: CD1 mice, death observed for 7 days, probit analysis; for PD50 1 hour after infection: single oral dose 1 hour after intranasal infection; for PD50 24 hours before infection: single oral dose 24 hours before intranasal infection. The method, then: The therapeutic efficacy, expressed as the 50% protective dose (PD50), of the compounds of formula (I) was evaluated in the experimental pulmonary infection induced in mice by Streptococcus pyogenes C203.
Charles River albino mice (strain CD1) weighing 23-25 g were used, kept in groups of 6 to a cage and fed normally with a standard diet and water ad libitum.
A suspension of Streptococcus pyogenes C203 (equal to about 10^8 CFU) in tryptone broth (0.05 ml) was administered intranasally to each mouse, anaesthetized with a mixture of ethyl ether and chloroform.
The compounds of formula I and the clarithromycin reference compounds were administered orally in a single dose, as a 0.5% suspension Methocel® 1 hour after the infection and 24 hours before the infection.
Observation of the death of the mice was continued for 7 days after the infection.
The PD50, expressed as μmol/kg, was calculated by means of probit analysis.

Consider `CC[C@H]1OC(=O)[C@H](C)[C@@H](O[C@H]2C[C@@](C)(OC)[C@@H](O)[C@H](C)O2)[C@H](C)[C@@H](O[C@@H]2O[C@H](C)C[C@H](N(C)C)[C@H]2O)[C@](C)(O)C[C@@H](C)/C(=N\OCCN(C)CCCCCCNCc2csc(-n3cccn3)n2)[C@H](C)[C@@H](O)[C@]1(C)O` [Compound 11, Erythromycin A (E)-9-[O-[2-[methyl[6-[(2-pyrazol-1-ylthiazol-4-ylmethyl]amino]hexyl]amino]ethyl]oxime]], for which the “MIC S. aureus 77” value against S. aureus 77 is over 64 µg/mL. The “MIC S. aureus 929” value with S. aureus 929 is over 64 µg/mL. For the same compound, in the experiment on S. coag. Neg. 845, the “MIC S. coag. Neg. 845” value was over 64 µg/mL. In the experiment on S. epidermis 60, the “MIC S. epidermis 60*” value came to 2 µg/mL (≈ 1.87 µM). In the experiment with S. specie 916, the “MIC S. specie 916*” value amounted to 8 µg/mL (≈ 7.49 µM). For the same compound, the “MIC S. haemolyticus 161” value with S. haemolyticus 161 is over 64 µg/mL. Besides, the “MIC S. pneumoniae 1035” value in the experiment on S. pneumoniae 1035 was found to be 0.0625 µg/mL (≈ 0.0585 µM). Besides, the “MIC S. pneumoniae 1047” value in the experiment on S. pneumoniae 1047 turned out to be 0.5 µg/mL (≈ 0.468 µM). Besides, the “MIC S. pneumoniae 1051” value against S. pneumoniae 1051 came out at 0.125 µg/mL (≈ 0.117 µM). Besides, in experiment [1], the “PD50 1 hour after infection” value was 11.2 µmol/kg and the “PD50 24 hours before infection” value was 25.4 µmol/kg.

`CC[C@H]1OC(=O)[C@H](C)[C@@H](O[C@H]2C[C@@](C)(OC)[C@@H](O)[C@H](C)O2)[C@H](C)[C@@H](O[C@@H]2O[C@H](C)C[C@H](N(C)C)[C@H]2O)[C@](C)(O)C[C@@H](C)/C(=N\OCCN(C)CCCCCCNCc2csc(-n3ccnc3)n2)[C@H](C)[C@@H](O)[C@]1(C)O` [Compound 6]: in the experiment with S. aureus 77, the “MIC S. aureus 77” value is over 64 µg/mL. Moreover, in the experiment with S. aureus 929, the “MIC S. aureus 929” value is over 64 µg/mL. In addition, the “MIC S. coag. Neg. 845” value against S. coag. Neg. 845 is over 64 µg/mL. Besides, the “MIC S. epidermis 60*” value in the experiment with S. epidermis 60 was 2 µg/mL (≈ 1.87 µM). Besides, the “MIC S. specie 916*” value against S. specie 916 was 4 µg/mL (≈ 3.74 µM). For the same compound, the “MIC S. haemolyticus 161” value against S. haemolyticus 161 was over 64 µg/mL. Also, in the experiment with S. pneumoniae 1035, the “MIC S. pneumoniae 1035” value is 0.5 µg/mL (≈ 0.468 µM). In addition, the “MIC S. pneumoniae 1047” value against S. pneumoniae 1047 amounted to 1 µg/mL (≈ 0.936 µM). Moreover, the “MIC S. pneumoniae 1051” value in the experiment with S. pneumoniae 1051 turned out to be 0.25 µg/mL (≈ 0.234 µM). In addition, in [1], the “PD50 1 hour after infection” value was found to be 10.1 µmol/kg and the “PD50 24 hours before infection” value turned out to be 16.0 µmol/kg.

For `CC[C@H]1OC(=O)[C@H](C)[C@@H](O[C@H]2C[C@@](C)(OC)[C@@H](O)[C@H](C)O2)[C@H](C)[C@@H](O[C@@H]2O[C@H](C)C[C@H](N(C)C)[C@H]2O)[C@](C)(O)C[C@@H](C)CN(C)[C@H](C)[C@@H](O)[C@]1(C)O` [Azithromycin, reference compound], the MIC (as a rule, the lowest concentration found to suppress growth) was over 64 µg/mL against S. aureus 77 (Staphylococcus aureus, 77); over 64 µg/mL in the experiment with S. aureus 929 (Staphylococcus aureus, 929); over 64 µg/mL against S. coag. Neg. 845 (Staphylococcus); over 64 µg/mL with S. epidermis 60 (Staphylococcus, 60); over 64 µg/mL in the experiment with S. specie 916 (Staphylococcus, 916); over 64 µg/mL against S. haemolyticus 161 (Staphylococcus haemolyticus, 161). Moreover, the MIC turned out to be 4 µg/mL (≈ 5.34 µM) in the experiment on S. pneumoniae 1035 (Streptococcus pneumoniae, 1035); 2 µg/mL (≈ 2.67 µM) in the experiment with S. pneumoniae 1047 (Streptococcus pneumoniae, 1047); 16 µg/mL (≈ 21.4 µM) in the experiment on S. pneumoniae 1051 (Streptococcus pneumoniae, 1051).
